According to ChEMBL document CHEMBL5316381, “Discovery of [1,2,3]Triazolo[4,5-c]quinoline Derivatives as a New Class of Ataxia-Telangiectasia Mutated Kinase Inhibitors” (ACS Med Chem Lett, 2023):
Calls of active or inactive are those of the source. No cut-off for these calls is given here.

Assays:
SW-620 [1] = experiment: Radiosensitizing activity against human SW620 cells assessed as reduction in colony formation at 9 nM incubated after 14 days in the presence of 3 Gy irradiation by crystal violet staining based analysis; type: functional, cell-based; details: time 14.0 day
[2] = molecular target: PI3-kinase p110-alpha/p85-alpha (Homo sapiens, UniProt P42336); experiment: Inhibition of human PI3K p110 alpha/p85 alpha using phosphatidylinositol-4, 5-bisphosphate as substrate incubated for 30 mins in the presence of Mg/ATP mix by HTRF-based analysis; type: protein-complex assay
[3] = molecular target: Serine/threonine-protein kinase mTOR (Homo sapiens, UniProt P42345); experiment: Inhibition of mTOR (unknown origin) incubated for 40 mins in the presence of Mn/ATP mix by scintillation counting analysis
[4] = molecular target: DNA-dependent protein kinase catalytic subunit (Homo sapiens, UniProt P78527); experiment: Inhibition of DNA-PK (unknown origin) using GST-cMyc-p53 as substrate incubated for 30 mins in the presence of Mg/ATP mix by HTRF-based analysis
SW-620 [5] = experiment: Antiproliferative activity against human SW620 cells assessed as reduction in colony formation at 27 nM measured after 14 days by crystal violet staining based microscopic analysis; type: functional, cell-based; details: time 14.0 day
SW-620 [6] = experiment: Radiosensitizing activity against human SW620 cells assessed as reduction in colony formation at 27 nM incubated after 14 days in the presence of 1.5 Gy irradiation by crystal violet staining based analysis; type: functional, cell-based; details: time 14.0 day
SW-620 [7] = experiment: Radiosensitizing activity against human SW620 cells assessed as reduction in colony formation at 27 nM incubated after 14 days in the presence of 3 Gy irradiation by crystal violet staining based analysis; type: functional, cell-based; details: time 14.0 day
SW-620 [8] = experiment: Induction of apoptosis in human SW620 cells assessed as early apoptotic cells at 100 nM measured after 72 hrs in presence of CPT-11 by Annexin V-FITC staining based flow cytometric analysis (reference value: 1.06%); type: functional
SW-620 [9] = experiment: Induction of apoptosis in human SW620 cells assessed as late apoptotic cells at 100 nM measured after 72 hrs in presence of CPT-11 by Annexin V-FITC staining based flow cytometric analysis (reference value: 5.75%); type: functional
SW-620 [10] = experiment: Induction of apoptosis in human SW620 cells assessed as necrotic cells at 100 nM measured after 72 hrs in presence of CPT-11 by Annexin V-FITC staining based flow cytometric analysis (reference value: 5.83%); type: functional
SW-620 [11] = experiment: Induction of apoptosis in human SW620 cells assessed as early apoptotic cells at 30 nM measured after 72 hrs in presence of CPT-11 by Annexin V-FITC staining based flow cytometric analysis (reference value: 1.06%); type: functional
SW-620 [12] = experiment: Induction of apoptosis in human SW620 cells assessed as late apoptotic cells at 30 nM measured after 72 hrs in presence of CPT-11 by Annexin V-FITC staining based flow cytometric analysis (reference value: 5.75%); type: functional
SW-620 [13] = experiment: Induction of apoptosis in human SW620 cells assessed as necrotic cells at 30 nM measured after 72 hrs in presence of CPT-11 by Annexin V-FITC staining based flow cytometric analysis (reference value: 5.83%); type: functional
SW-620 [14] = experiment: Induction of apoptosis in human SW620 cells assessed as late apoptotic cells at 10 nM measured after 72 hrs in presence of CPT-11 by Annexin V-FITC staining based flow cytometric analysis (reference value: 5.75%); type: functional
SW-620 [15] = experiment: Induction of apoptosis in human SW620 cells assessed as viable cells at 100 nM measured after 72 hrs by Annexin V-FITC staining based flow cytometric analysis (reference value: 87.36%); type: functional; details: read-out: Activity
SW-620 [16] = experiment: Induction of apoptosis in human SW620 cells assessed as necrotic cells at 100 nM measured after 72 hrs by Annexin V-FITC staining based flow cytometric analysis (reference value: 5.83%); type: functional
HCT-116 [17] = experiment: Induction of apoptosis in human HCT-116 cells assessed as early apoptotic cells at 100 nM measured after 72 hrs in presence of CPT-11 by Annexin V-FITC staining based flow cytometric analysis (reference value: 4.06%); type: functional
HCT-116 [18] = experiment: Induction of apoptosis in human HCT-116 cells assessed as late apoptotic cells at 100 nM measured after 72 hrs in presence of CPT-11 by Annexin V-FITC staining based flow cytometric analysis (reference value: 19.80%); type: functional
HCT-116 [19] = experiment: Induction of apoptosis in human HCT-116 cells assessed as viable cells at 30 nM measured after 72 hrs in presence of CPT-11 by Annexin V-FITC staining based flow cytometric analysis (reference value: 73.74%); type: functional; details: read-out: Activity
HCT-116 [20] = experiment: Induction of apoptosis in human HCT-116 cells assessed as viable cells at 10 nM measured after 72 hrs in presence of CPT-11 by Annexin V-FITC staining based flow cytometric analysis (reference value: 73.74%); type: functional; details: read-out: Activity
HCT-116 [21] = experiment: Induction of apoptosis in human HCT-116 cells assessed as early apoptotic cells at 10 nM measured after 72 hrs in presence of CPT-11 by Annexin V-FITC staining based flow cytometric analysis (reference value: 4.06%); type: functional
HCT-116 [22] = experiment: Induction of apoptosis in human HCT-116 cells assessed as necrotic cells at 10 nM measured after 72 hrs in presence of CPT-11 by Annexin V-FITC staining based flow cytometric analysis (reference value: 2.41%); type: functional
HCT-116 [23] = experiment: Induction of apoptosis in human HCT-116 cells assessed as viable cells at 100 nM measured after 72 hrs by Annexin V-FITC staining based flow cytometric analysis (reference value: 73.74%); type: functional; details: read-out: Activity
HCT-116 [24] = experiment: Induction of apoptosis in human HCT-116 cells assessed as necrotic cells at 100 nM measured after 72 hrs by Annexin V-FITC staining based flow cytometric analysis (reference value: 2.41%); type: functional
[25] = molecular target: Serine/threonine-protein kinase Chk2 (Homo sapiens) (UniProt O96017); experiment: Inhibition of CPT-11 induced Chk2 phosphorylation in human SW620 cells by SDS-PAGE based Westernblot analysis; type: cell-based
[26] = molecular target: Serine/threonine-protein kinase Chk2 (Homo sapiens) (UniProt O96017); experiment: Inhibition of Chk2 phosphorylation in human SW620 cells with IR-induced DNA damage in the presence of 1.5 Gy irradiation by Western blot analysis; type: cell-based; details: dose 3-250 nM
[27] = molecular target: Serine/threonine-protein kinase Chk2 (Homo sapiens) (UniProt O96017); experiment: Inhibition of Chk2 phosphorylation in human SW620 cells with IR-induced DNA damage in the presence of 3 Gy irradiation by Western blot analysis; type: cell-based; details: dose 3-250 nM
[28] = Toxicity in BALB/c mouse xenografted with human SW620 cells assessed as liver damage at 5 mg/kg, ip administered once daily and measured after 23 days by H&E staining based microscopic analysis; type: organism-based, SW-620; details: in vivo, 552 h, time 23 day
SW-620 [29] = experiment: Anticancer activity against human SW620 cells assessed as reduction in cell viability by measuring fold change in CPT-11 IC50 at 100 nM incubated for 5 days by MTT assay relative irinotecan alone; type: functional; details: time 5 day
[30] = molecular target: Serine-protein kinase ATM (Homo sapiens, UniProt Q13315); experiment: Inhibition of ATM in human SW620 cells assessed as increase in gamma H2AX foci accumulation at 50 to 250 nM incubated for 24 hrs in the presence of CPT-11 by confocal microscopic analysis; type: cell-based; details: dose 50-250 nM
Serine-protein kinase ATM, sequence (Q13315 whole entry): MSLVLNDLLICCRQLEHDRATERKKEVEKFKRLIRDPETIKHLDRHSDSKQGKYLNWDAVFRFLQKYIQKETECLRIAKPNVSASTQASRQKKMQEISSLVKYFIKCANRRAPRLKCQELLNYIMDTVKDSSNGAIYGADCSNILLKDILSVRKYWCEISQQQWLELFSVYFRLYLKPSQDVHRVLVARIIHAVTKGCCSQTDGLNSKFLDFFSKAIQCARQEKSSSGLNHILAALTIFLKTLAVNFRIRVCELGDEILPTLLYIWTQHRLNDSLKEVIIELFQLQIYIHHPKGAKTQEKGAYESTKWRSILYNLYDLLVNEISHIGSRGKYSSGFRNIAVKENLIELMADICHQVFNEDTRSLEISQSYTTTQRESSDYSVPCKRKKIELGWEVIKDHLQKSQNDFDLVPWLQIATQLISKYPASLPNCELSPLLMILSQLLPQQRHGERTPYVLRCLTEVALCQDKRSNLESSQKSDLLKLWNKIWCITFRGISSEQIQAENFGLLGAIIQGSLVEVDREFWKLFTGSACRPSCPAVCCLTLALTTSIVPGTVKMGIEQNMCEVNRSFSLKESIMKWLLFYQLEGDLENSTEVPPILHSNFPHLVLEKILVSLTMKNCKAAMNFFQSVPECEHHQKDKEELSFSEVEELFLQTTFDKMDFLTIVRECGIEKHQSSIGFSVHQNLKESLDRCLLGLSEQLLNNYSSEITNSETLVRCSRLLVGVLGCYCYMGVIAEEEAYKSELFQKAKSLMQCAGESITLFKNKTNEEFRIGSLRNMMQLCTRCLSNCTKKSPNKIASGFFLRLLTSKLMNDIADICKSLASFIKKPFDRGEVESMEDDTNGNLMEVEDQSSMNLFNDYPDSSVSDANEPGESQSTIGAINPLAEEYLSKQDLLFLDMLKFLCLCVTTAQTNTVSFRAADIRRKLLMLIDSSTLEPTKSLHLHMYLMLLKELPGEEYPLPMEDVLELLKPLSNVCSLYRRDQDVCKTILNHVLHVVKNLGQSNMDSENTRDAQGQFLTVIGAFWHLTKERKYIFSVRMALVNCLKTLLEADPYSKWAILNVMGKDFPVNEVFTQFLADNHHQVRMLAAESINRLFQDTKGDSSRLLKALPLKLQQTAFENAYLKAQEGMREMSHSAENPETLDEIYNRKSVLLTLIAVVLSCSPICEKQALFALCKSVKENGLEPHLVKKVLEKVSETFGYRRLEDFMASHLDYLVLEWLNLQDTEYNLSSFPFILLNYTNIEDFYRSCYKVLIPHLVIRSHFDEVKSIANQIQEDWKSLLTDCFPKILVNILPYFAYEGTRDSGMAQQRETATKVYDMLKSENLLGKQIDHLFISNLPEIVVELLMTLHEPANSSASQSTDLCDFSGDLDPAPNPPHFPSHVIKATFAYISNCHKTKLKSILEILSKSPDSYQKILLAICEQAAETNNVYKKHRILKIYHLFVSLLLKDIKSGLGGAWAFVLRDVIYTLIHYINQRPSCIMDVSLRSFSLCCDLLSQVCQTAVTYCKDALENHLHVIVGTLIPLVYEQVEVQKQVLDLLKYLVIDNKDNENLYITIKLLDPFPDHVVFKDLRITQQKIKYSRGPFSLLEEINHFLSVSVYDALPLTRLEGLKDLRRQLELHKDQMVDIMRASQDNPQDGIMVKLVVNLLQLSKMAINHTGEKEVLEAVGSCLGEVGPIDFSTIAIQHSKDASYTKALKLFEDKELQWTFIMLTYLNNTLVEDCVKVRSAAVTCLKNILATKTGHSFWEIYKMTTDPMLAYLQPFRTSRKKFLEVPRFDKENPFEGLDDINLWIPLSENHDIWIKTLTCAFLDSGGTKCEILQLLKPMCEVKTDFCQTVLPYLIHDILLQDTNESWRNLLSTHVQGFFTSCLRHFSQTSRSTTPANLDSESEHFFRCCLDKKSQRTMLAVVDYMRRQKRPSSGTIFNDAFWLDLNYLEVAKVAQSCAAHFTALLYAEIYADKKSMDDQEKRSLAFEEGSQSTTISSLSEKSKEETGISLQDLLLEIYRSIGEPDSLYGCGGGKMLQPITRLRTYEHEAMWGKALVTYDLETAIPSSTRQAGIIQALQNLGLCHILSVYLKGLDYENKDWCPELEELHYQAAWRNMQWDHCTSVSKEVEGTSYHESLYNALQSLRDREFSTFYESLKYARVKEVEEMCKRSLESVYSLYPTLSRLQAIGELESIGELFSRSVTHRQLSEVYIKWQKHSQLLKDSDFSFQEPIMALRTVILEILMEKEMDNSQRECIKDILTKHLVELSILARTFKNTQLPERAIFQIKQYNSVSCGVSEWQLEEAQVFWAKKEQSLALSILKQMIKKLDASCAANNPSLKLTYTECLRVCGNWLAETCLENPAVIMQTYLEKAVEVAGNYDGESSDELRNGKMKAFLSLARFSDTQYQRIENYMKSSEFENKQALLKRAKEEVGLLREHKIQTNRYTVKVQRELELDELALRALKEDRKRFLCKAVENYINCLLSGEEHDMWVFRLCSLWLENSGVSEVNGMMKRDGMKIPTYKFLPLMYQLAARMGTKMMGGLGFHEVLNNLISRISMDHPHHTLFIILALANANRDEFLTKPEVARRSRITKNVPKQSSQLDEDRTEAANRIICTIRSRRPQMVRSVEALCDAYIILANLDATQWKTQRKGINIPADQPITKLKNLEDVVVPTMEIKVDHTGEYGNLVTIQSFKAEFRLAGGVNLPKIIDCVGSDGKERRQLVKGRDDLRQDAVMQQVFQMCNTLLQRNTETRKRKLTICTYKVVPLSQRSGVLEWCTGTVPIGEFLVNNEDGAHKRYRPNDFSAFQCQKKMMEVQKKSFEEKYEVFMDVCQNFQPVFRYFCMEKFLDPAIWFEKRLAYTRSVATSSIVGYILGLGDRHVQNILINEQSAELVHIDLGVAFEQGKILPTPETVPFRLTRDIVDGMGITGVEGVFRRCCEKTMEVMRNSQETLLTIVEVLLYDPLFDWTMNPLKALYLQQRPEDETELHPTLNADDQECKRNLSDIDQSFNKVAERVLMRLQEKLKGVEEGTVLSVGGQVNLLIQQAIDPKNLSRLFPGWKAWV

Serine/threonine-protein kinase Chk2 (Homo sapiens), sequence (O96017 whole entry): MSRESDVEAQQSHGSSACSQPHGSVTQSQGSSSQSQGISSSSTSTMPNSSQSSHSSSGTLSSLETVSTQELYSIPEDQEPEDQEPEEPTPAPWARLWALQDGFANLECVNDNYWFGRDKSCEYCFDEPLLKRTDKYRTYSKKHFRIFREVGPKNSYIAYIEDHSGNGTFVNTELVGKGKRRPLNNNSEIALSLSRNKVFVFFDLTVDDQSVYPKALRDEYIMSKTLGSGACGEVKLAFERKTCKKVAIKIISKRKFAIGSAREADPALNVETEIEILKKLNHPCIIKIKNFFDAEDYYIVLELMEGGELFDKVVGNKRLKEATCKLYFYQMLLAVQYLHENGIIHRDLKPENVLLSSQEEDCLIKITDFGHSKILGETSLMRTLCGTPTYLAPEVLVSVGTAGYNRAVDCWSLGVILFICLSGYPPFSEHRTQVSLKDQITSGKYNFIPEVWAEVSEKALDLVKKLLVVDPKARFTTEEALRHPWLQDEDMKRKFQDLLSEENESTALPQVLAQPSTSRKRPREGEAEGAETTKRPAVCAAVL

IC50 [2]: > 10000 nM | IC50 [3]: 216 nM | IC50 [4]: 123 nM | inhibition [25]: Dose-Dependent Effect | inhibition [30]: Active
SMILES: C[C@H](c1ccccc1)n1nnc2cnc3ccc(-c4ccc(OCCCN(C)C)nc4)cc3c21
Activity (SW-620 [1]): Active | Activity (SW-620 [5]): inactive | Activity (SW-620 [6]): Active | Activity (SW-620 [7]): Active | Activity (SW-620 [8]): 7.18% | Activity (SW-620 [9]): 60.69% | Activity (SW-620 [10]): 1.63% | Activity (SW-620 [11]): 6.95% | Activity (SW-620 [12]): 44% | Activity (SW-620 [13]): 1.83% | Activity (SW-620 [14]): 27.19% | viability at 0.1 µM (SW-620 [15]): 80.2% | Activity (SW-620 [16]): 6.3% | Activity (HCT-116 [17]): 2.77% | Activity (HCT-116 [18]): 68.15% | viability at 0.03 µM (HCT-116 [19]): 25.7% | viability at 0.01 µM (HCT-116 [20]): 55.8% | Activity (HCT-116 [21]): 1.1% | Activity (HCT-116 [22]): 8.88% | viability at 0.1 µM (HCT-116 [23]): 75.3% | Activity (HCT-116 [24]): 9.24% | inhibition [26]: Dose-Dependent Effect | inhibition [27]: Dose-Dependent Effect | Activity [28]: Non-Toxic | fold change (FC) (SW-620 [29]): 4.4
